Measured values from patent EP2114888B1, “TRICYCLIC COMPOUNDS AND THEIR USE AS GLUCOCORTICOID RECEPTOR MODULATORS” (priority 2007, dated 2008).

Legend:
[1] = in vivo; conditions: rat, po
[2] = tested on: IL-1β; experiment: Ex vivo LPS-stimulated human whole blood, IL-1β production; format: cell-based; conditions: one donor
Procedure: (§1) Venous blood from human donors was collected as 10 ml aliquots in tubes containing sodium heparin (BD Vacutainer from Becton Dickinson and Company, Franklin Lakes, NY). Blood was added to sterile polystyrene round bottom 96-well tissue culture plates (Corning Costar) at 100 µl/well, omitting the outside wells. Media (RPMI Medium 1640 with L-glutamine, Invitrogen Corporation, Carlsbad, CA) was added to the blood in 90 µl aliquots for a total volume of 190 µl. Outside wells were filled with 200 µl of media. Blood was placed in a humidified 37°C incubator with 5% CO2 while compounds were prepared (nearly 60 minutes).
(§2) Compounds were prepared from 10 mM stock solutions in dimethylsulfoxide (DMSO, Sigma-Aldrich). […] Final DMSO and ethanol concentrations in the assay were 0.1 % and 1.5%. The samples were gently triturated twice to mix and replaced in the incubator. LPS stock (E. coli serotype 0111:B4, Sigma-Aldrich), stored in aliquots of 100 µg/ml in RPMI at -20°C, was diluted 1/50 in RPMI to make a working stock solution. After 60 minutes of incubation, 10 µl of the prepared LPS working stock was added to the blood to a final concentration of 100 ng/ml, omitting wells to be used as negative control. The samples were again gently triturated and the plates incubated overnight for 22 hours. Following incubation, the blood was centrifuged at 1500 x g for 5 minutes and the plasma removed to either freeze at -20°C or assay for cytokine release.
(§3) IL-1β, IFNγ,IL-6, and TNFα protein levels were measured using Meso Scale assay kits (Meso Scale Discovery, Gaithersburg, MD). Reagents were allowed to come to room temperature. Meso Scale plates were blocked with 30 µl of human plasma/serum assay diluent with gentle shaking for 60 minutes at room temperature. Plates were washed 3x with wash buffer (PBS, Invitrogen Corporation, with 0.05% Tween-20, Sigma-Aldrich). Calibrators for standard curves were prepared in human plasma/serum assay diluent as a 1/5 serial dilution to achieve final concentrations ranging from 50000 pg/ml to 3.2 pg/ml. Samples and calibrators were added at 20 µl/well, then incubated at room temperature with gentle shaking for 90 minutes. Plates were again washed 3 times with wash buffer. Detection antibody was diluted in human plasma/serum antibody diluent to 1 µg/ml and added to the plate at 20 µl/well. Plates were incubated as before for 60 minutes and washed again. Read Buffer T (4x) was diluted 1:1 with mqH2O to 2 times concentration and 150 µl added to each well. Plates were analyzed on the SECTOR Imager 6000 (Meso Scale Discovery) to generate raw signal values.
(§4) Individual values were compared to positive and negative controls (vehicle treated blood with LPS and vehicle treated blood without LPS, respectively) to generate % inhibition. Triplicate values were averaged for each donor. The values for two donors were averaged (only one donor was used for IL-1β) and graphed using 4-parameter fit curves in the GraFit 5.0.11 application.

[3] = tested on: IL-6; experiment: IL-1β-stimulated IL-6 production in A549 lung epithelial cells; format: cell-based, Human; conditions: Homo sapiens, A549
Procedure: Human A549 lung epithelial cells (American Type Culture Collection, Rockville, MD) were cultured in Kaighn's F-12K medium with penicillin-streptomycin (10 U/mL) and 10% heat-inactivated fetal bovine serum (all from Invitrogen, Grand Island, NY). A549 cells were plated at a density of 30,000 cells/well in 96-well plates and incubated overnight at 37°C and with 5% CO2. The cells were serum-starved by replacing the growth medium with serum-free Kaighn's F-12K medium with penicillin-streptomycin (10 U/mL) and, again, incubating overnight at 37°C and with 5% CO2. On the third day, the medium was replaced with fresh serum-free medium and the cells were incubated with or without compound (vehicle was DMSO at 0.1 % maximum concentration) for approximately 1 hour and then stimulated with 1 ng/mL recombinant human IL-1β (R&D Systems, Minneapolis, MN) for 20 hours at 37°C and with 5% CO2. Cell supernatants were collected for determination of IL-6 levels using MSD (Meso Scale Discovery, Gaithersburg, MD) 96-well Single Spot plates as per the manufacturer's instructions. Plates were read with an MSD Sector Imager 6000. […] Percent inhibition for each compound concentration, relative to these controls, was calculated using Excel (Microsoft, Redmond, WA). IC50 values were generated using GraFit 5.0 data analysis software (Erithacus Software Ltd., Surrey, UK).

[4] = Oral absorption profile, time to Cmax in dogs; conditions: dog, in vivo
[5] = tested on: Mouse Collagen-induced arthritis (mCIA); experiment: Traditional mouse collagen-induced arthritis (mCIA) model; format: in vivo, male DBA/J mice; conditions: mice
Procedure: Mouse Collagen-induced arthritis is a commonly used chronic, preclinical model of rheumatoid arthritis in which joint swelling and bone destruction occur following immunization with type II collagen. Reduction of disease incidence and severity has been shown previously to be predictive of disease-modification and signs and symptoms mitigation, respectively, in a clinical setting.
In the traditional mCIA model, male DBA/J mice were immunized with 50 µg chick type II collagen (cCII) in complete Freund's adjuvant and then boosted 21 days later with 50 µg cCII in incomplete Freund's adjuvant. Treatment with compounds was initiated on the morning of the boost and continued for 56 days. The effectiveness of treatment was measured by disease incidence (i.e., number of mice showing any sign of disease) and disease severity, both of which were measured twice a week.

[6] = Oral absorption profile in rats
[7] = tested on: TNFα; experiment: Ex vivo LPS-stimulated human whole blood, TNFα production; format: cell-based; conditions: mean values
Procedure: as §1, §2, §3, §4

With `Cc1ncccc1NC(=O)c1ccc2c(c1)CC[C@@H]1C[C@@](O)(C(F)(F)F)CC[C@@]21Cc1ccccc1` [Example 1, (4βS,7R,8αR)-4β-benzyl-7-hydroxy-N-(2-methylpyridin-3-yl)-7-(trifluoromethyl)-4β,5,6,7,8,8α,9,10-octahydrophenanthrene-2-carboxamide] the AUC [1] was 460 ng·h/mL, the inhibition at 0.000457247 µM ([2]; 0.457247 nM) was 23.4% and the inhibition at 0.00137174 µM ([2]; 1.371742 nM) was 22.4%. It also gave an inhibition at 0.00411523 µM ([2]; 4.115226 nM) of 11.2%, an inhibition at 0.0123457 µM ([2]; 12.34568 nM) of 21.5% and an inhibition at 0.037037 µM ([2]; 37.03704 nM) of 38.2%. It also gave an inhibition at 0.111111 µM ([2]; 111.1111 nM) of 39.7%, an inhibition at 0.333333 µM ([2]; 333.3333 nM) of 57.8% and an inhibition at 1 µM ([2]; 1000 nM) of 53.5%. For the same compound, the inhibition [3] was 86.1%, the Tmax [4] was 1.5 h and the “Disease incidence (traditional mCIA) EAUC50 (AUC 0-4 hr)” value [5] was 0.04 µg·h/mL. For the same compound, the “Disease incidence (traditional mCIA) EAUC80 (AUC 0-4 hr)” value [5] was 0.10 µg·h/mL, the “bioavailability F” value [6] was 17% and the Cmax ([6]; oral) was 130 ng/mL. The inhibition at 0.000457247 µM ([7]; 0.457247 nM) was 8.96%, the inhibition at 0.00137174 µM ([7]; 1.371742 nM) was 7.87% and the inhibition at 0.00411523 µM ([7]; 4.115226 nM) was -1.31%. It also gave an inhibition at 0.0123457 µM ([7]; 12.34568 nM) of 9.42%, an inhibition at 0.037037 µM ([7]; 37.03704 nM) of 18.7% and an inhibition at 0.111111 µM ([7]; 111.1111 nM) of 27.4%. For the same compound, the inhibition at 0.333333 µM ([7]; 333.3333 nM) was 36% and the inhibition at 1 µM ([7]; 1000 nM) was 38.1%.
